The target in one assay is HLA-A*02 (Homo sapiens, UniProt P04439, D140Y/D185E/D98H/E176V/E277Q/G131W/G231S/I119V/I121R/I166T/I218V/L300P/N151K/N90K/P208A/P217A/Q86G/Q94H/R138H/R169H). The assay is described as follows: MHC binding assay by UV-ligand exchange and beta2m ELISA (HLA-A*02). Particulars: peptide exchange yield, binding to HLA-A*02; UV-ligand exchange, beta2m ELISA. The text has this:
(§1) Candidate peptides for T cell based therapies according to the present invention were further tested for their MHC binding capacity (affinity). The individual peptide-MHC complexes were produced by UV-ligand exchange, where a UV-sensitive peptide is cleaved upon UV-irradiation, and exchanged with the peptide of interest as analyzed. Only peptide candidates that can effectively bind and stabilize the peptide-receptive MHC molecules prevent dissociation of the MHC complexes. To determine the yield of the exchange reaction, an ELISA was performed based on the detection of the light chain (β2m) of stabilized MHC complexes. The assay was performed as generally described in Rodenko et al. (Rodenko et al., 2006).
(§2) 96 well MAXISorp plates (NUNC) were coated over night with 2 ug/ml streptavidin in PBS at room temperature, washed 4× and blocked for 1 h at 37° C. in 2% BSA containing blocking buffer. Refolded HLA-A*02:01/MLA-001 monomers served as standards, covering the range of 15-500 ng/ml. Peptide-MHC monomers of the UV-exchange reaction were diluted 100 fold in blocking buffer. Samples were incubated for 1 h at 37° C., washed four times, incubated with 2 ug/ml HRP conjugated anti-β2m for 1 h at 37° C., washed again and detected with TMB solution that is stopped with […]. Absorption was measured at 450 nm. Candidate peptides that show a high exchange yield (preferably higher than 50%, most preferred higher than 75%) are generally preferred for a generation and production of antibodies or fragments thereof, and/or T cell receptors or fragments thereof, as they show sufficient avidity to the MHC molecules and prevent dissociation of the MHC complexes.
In general terms: An ELISA detects its analyte on a solid surface through an enzyme-linked reagent.

A further assay has as its system CD8+ T cells. Kind of assay: In vitro T-cell priming assay (aAPCs loaded with peptide/MHC and anti-CD28), pMHC multimer readout. Format: cell-based, human. To be noted: for Wells positive [%]: in vitro immunogenicity of HLA class I peptides, peptide specific pMHC multimer staining after three stimulation cycles; for in vitro immunogenicity: Wells: positive wells, HLA-A*02 and HLA-A*24 peptides, healthy donors. The text has this:
In order to obtain information regarding the immunogenicity of the TUMAPs of the present invention, the inventors performed investigations using an in vitro T-cell priming assay based on repeated stimulations of CD8+ T cells with artificial antigen presenting cells (aAPCs) loaded with peptide/MHC complexes and anti-CD28 antibody.
In order to perform in vitro stimulations by artificial antigen presenting cells loaded with peptide-MHC complex (pMHC) and anti-CD28 antibody, the inventors first isolated CD8+ T cells from fresh HLA-A*02 leukapheresis products via positive selection using CD8 microbeads (Miltenyi Biotec, Bergisch-Gladbach, Germany) of healthy donors obtained from the University clinics Mannheim, Germany, after informed consent.
PBMCs and isolated CD8+ lymphocytes were incubated in T-cell medium (TCM) until use consisting of RPMI-Glutamax (Invitrogen, Karlsruhe, Germany) supplemented with 10% heat inactivated human AB serum (PAN-Biotech, Aidenbach, Germany), 100 U/ml Penicillin/100 μg/ml Streptomycin (Cambrex, Cologne, Germany), 1 mM sodium pyruvate (CC Pro, Oberdorla, Germany), 20 μg/ml Gentamycin (Cambrex). 2.5 ng/ml IL7 (PromoCell, Heidelberg, Germany) and 10 U/ml IL-2 (Novartis Pharma, Nurnberg, Germany) were also added to the TCM at this step.
Generation of pMHC/anti-CD28 coated beads, T-cell stimulations and readout was performed in a highly defined in vitro system using four different pMHC molecules per stimulation condition and 8 different pMHC molecules per readout condition.
The purified co-stimulatory mouse IgG2a anti human CD28 Ab 9.3 (Jung et al., 1987) was chemically biotinylated using Sulfo-N-hydroxysuccinimidobiotin as recommended by the manufacturer (Perbio, Bonn, Germany). Beads used were 5.6 μm diameter streptavidin coated polystyrene particles (Bangs Laboratories, Illinois, USA).
pMHC used for positive and negative control stimulations were A*0201/MLA-001 (peptide […] (SEQ ID NO. 303) from modified Melan-A/MART-1) and A*0201/DDX5-001 ([…] from DDX5, SEQ ID NO. 304), respectively.
800.000 beads/200 μl were coated in 96-well plates in the presence of 4×12.5 ng different biotin-pMHC, washed and 600 ng biotin anti-CD28 were added subsequently in a volume of 200 μl. Stimulations were initiated in 96-well plates by co-incubating 1×10^6 CD8+ T cells with 2×10^5 washed coated beads in 200 μl TCM supplemented with 5 ng/ml IL-12 (PromoCell) for 3 days at 37° C. Half of the medium was then exchanged by fresh TCM supplemented with 80 U/ml IL-2 and incubating was continued for 4 days at 37° C. This stimulation cycle was performed for a total of three times. For the pMHC multimer readout using 8 different pMHC molecules per condition, a two-dimensional combinatorial coding approach was used as previously described (Andersen et al., 2012) with minor modifications encompassing coupling to 5 different fluorochromes. Finally, multimeric analyses were performed by staining the cells with Live/dead near IR dye (Invitrogen, Karlsruhe, Germany), CD8-FITC antibody clone SK1 (BD, Heidelberg, Germany) and fluorescent pMHC multimers. For analysis, a BD LSRII SORP cytometer equipped with appropriate lasers and filters was used. Peptide specific cells were calculated as percentage of total CD8+ cells. Evaluation of multimeric analysis was done using the FlowJo software (Tree Star, Oregon, USA). In vitro priming of specific multimer+CD8+ lymphocytes was detected by comparing to negative control stimulations.

A further assay concerns HLA-A*24. The assay is described as follows: MHC binding assay by UV-ligand exchange and beta2m ELISA (HLA-A*24). To be noted: peptide exchange yield, binding to HLA-A*24; UV-ligand exchange, beta2m ELISA. The arrangement: species or system human.
Description: as §1, §2

In the case of “1 (LLYPEPWSV; listed as Homo sapiens) [compound 1]”, the Peptide exchange entry in the assay with HLA-A*02 was “++++ (> = 75% = ++++)”. Consider “3 (KLEENGDLYL; listed as Homo sapiens) [compound 3]”, for which the Peptide exchange result with HLA-A*02 is recorded as “++++ (> = 75% = ++++)”. As to “4 (KLMPGTYTL; listed as Homo sapiens) [compound 4]”, in the assay with HLA-A*02, the Peptide exchange result is on record as “++++ (> = 75% = ++++)”. The “Wells positive [%]” value in the assay with CD8+ T cells is given as “+ (<20% = +)”. The corresponding values for “12 (GLLPLLHRA; listed as Homo sapiens) [compound 12]” are “++++ (> = 75% = ++++)” and “++++ (> = 70% = ++++)”. Take “14 (ILAKDLFEI; listed as Homo sapiens) [compound 14]”: the Peptide exchange entry with HLA-A*02 is “++++ (> = 75% = ++++)”. The same measure, in the same setting: the result for “16 (YTLDIPVLFGV; listed as Homo sapiens) [compound 16]” reads “++++ (> = 75% = ++++)”. For the substance “34 (FLLATEVVTV; listed as Homo sapiens) [compound 34]”, in the assay with HLA-A*02, the Peptide exchange result was “++++ (> = 75% = ++++)”.

Consider “51 (LLFSRLCGA; listed as Homo sapiens) [compound 51]”, for which, in the assay with HLA-A*02, the Peptide exchange result is listed as “++++ (> = 75% = ++++)”.

Consider “84 (ALCPRIHEV; listed as Homo sapiens) [compound 84]”, for which the Peptide exchange result in the assay with HLA-A*02 is on record as “++++ (> = 75% = ++++)”.

As to “92 (GLLFSLRSV; listed as Homo sapiens) [compound 92]”, the Peptide exchange entry in the assay with HLA-A*02 is recorded as “++++ (> = 75% = ++++)”. On the same count and under the same terms, the result for “95 (GLLGSLFFL; listed as Homo sapiens) [compound 95]” reads “++++ (> = 75% = ++++)”; that for “112 (SLGKFTFDV; listed as Homo sapiens) [compound 112]”, “++++ (> = 75% = ++++)”. On the same count and under the same terms, the result for “125 (SLADYEHFV; listed as Homo sapiens) [compound 125]” reads “++++ (> = 75% = ++++)”; that for “126 (QMFQYFITV; listed as Homo sapiens) [compound 126]”, “++++ (> = 75% = ++++)”. “129 (RLQDILWFL; listed as Homo sapiens) [compound 129]”: in the assay with HLA-A*02, the Peptide exchange result is reported as “++++ (> = 75% = ++++)”.

Take “133 (ALLPRLHQL; listed as Homo sapiens) [compound 133]”: the Peptide exchange result in the assay with HLA-A*02 was “++++ (> = 75% = ++++)”.

Turning to “147 (YLMDDTVEI; listed as Homo sapiens) [compound 147]”, the Peptide exchange entry in the assay with HLA-A*02 is recorded as “++++ (> = 75% = ++++)”. Consider “153 (FISERVEVV; listed as Homo sapiens) [compound 153]”, for which, in the assay with HLA-A*02, the Peptide exchange result is “++++ (> = 75% = ++++)”. Regarding “158 (HYSQELSLLYL; listed as Homo sapiens) [compound 158]”, the “Wells positive [%]” value with CD8+ T cells is “+ (<20% = +)”. Also, the Peptide exchange result with HLA-A*24 was “++++ (> = 75% = ++++)”. On the same counts, the results for “159 (LYNKGFIYL; listed as Homo sapiens) [compound 159]” are “++++ (> = 70% = ++++)” and “++++ (> = 75% = ++++)”. On the same counts, the results for “163 (DYLKGLASF; listed as Homo sapiens) [compound 163]” are “+ (<20% = +)” and “++++ (> = 75% = ++++)”.

In the case of “165 (DYTTWTALL; listed as Homo sapiens) [compound 165]”, the “Wells positive [%]” value in the assay on CD8+ T cells is given as “+ (<20% = +)”. Also, the Peptide exchange entry with HLA-A*24 is reported as “++++ (> = 75% = ++++)”. The corresponding values for “167 (NYINRILKL; listed as Homo sapiens) [compound 167]” are “+ (<20% = +)” and “++++ (> = 75% = ++++)”. With “204 (TYELRYFQI; listed as Homo sapiens) [compound 204]”, in the assay on CD8+ T cells, the “Wells positive [%]” value is “+ (<20% = +)”. The Peptide exchange entry in the assay on HLA-A*24 was “++++ (> = 75% = ++++)”. Consider “229 (AILAHLNTV; listed as Homo sapiens) [compound 229]”, for which the Peptide exchange result in the assay with HLA-A*02 was “++++ (> = 75% = ++++)”. On to “245 (SLLDLPLSL; listed as Homo sapiens) [compound 245]”, for which the Peptide exchange result in the assay with HLA-A*02 is “++++ (> = 75% = ++++)”.

Turning to “248 (YLDRFLAGV; listed as Homo sapiens) [compound 248]”, the Peptide exchange entry with HLA-A*02 is “++++ (> = 75% = ++++)”. On to “249 (GLCERLVSL; listed as Homo sapiens) [compound 249]”, for which the Peptide exchange entry in the assay with HLA-A*02 was “++++ (> = 75% = ++++)”. For the same substance, the “Wells positive [%]” value in the assay on CD8+ T cells was “+ (<20% = +)”.

Take “257 (GLYTDPCGV; listed as Homo sapiens) [compound 257]”: in the assay with HLA-A*02, the Peptide exchange result is “++++ (> = 75% = ++++)”. Take “258 (LLSERFINV; listed as Homo sapiens) [compound 258]”: in the assay with HLA-A*02, the Peptide exchange entry is reported as “++++ (> = 75% = ++++)”. Take “268 (QYLGQIQHI; listed as Homo sapiens) [compound 268]”: the “Wells positive [%]” value with CD8+ T cells was “+ (<20% = +)”. For “269 (YFIDSTNLKTHF; listed as Homo sapiens) [compound 269]”, the “Wells positive [%]” value in the assay on CD8+ T cells is listed as “+ (<20% = +)”. Still for that read-out and setting: the result for “285 (HYPPVQVLF; listed as Homo sapiens) [compound 285]” reads “+ (<20% = +)”. As to “291 (KLDETGNSL; listed as Homo sapiens) [compound 291]”, the “in vitro immunogenicity: Wells” value with CD8+ T cells was “+ (<20% = +)”. Same read-out and setting: the result for “292 (GMMTAILGV; listed as Homo sapiens) [compound 292]” reads “+ (<20% = +)”; that for “293 (FLVDGSWSI; listed as Homo sapiens) [compound 293]”, “+ (<20% = +)”; that for “296 (TYVDSSHTI; listed as Homo sapiens) [compound 296]”, “+ (<20% = +)”.

“298 (RYLEGTSCI; listed as Homo sapiens) [compound 298]”: the “in vitro immunogenicity: Wells” value in the assay on CD8+ T cells is recorded as “+ (<20% = +)”. On the same count and under the same terms, the result for “300 (AYVLRLETL; listed as Homo sapiens) [compound 300]” reads “+ (<20% = +)”; that for “301 (AYKPGALTF; listed as Homo sapiens) [compound 301]”, “+ (<20% = +)”.
